According to patent publication US4117151A, “Therapeutic sulfonamides” (priority 1976, dated 1978):
Entries after “also recorded” stand apart in the source; their conditions may differ.

What was measured:
myocardium = details: background; cited from earlier work
patient = details: clinical use; background; cited from earlier work
[1] = test system: oxygen consumption of the myocardium; experiment: oxygen consumption of the myocardium (rate-pressure product); format: in vivo; details: anaesthetized dog, 10 mg/kg intravenous, 100 before administration
Protocol: This comparative trial aimed at determining the respective capabilities of the two substances to reduce the oxygen consumption of the myocardium. This property was measured by the indirect method known as the "rate-pressure product" which is a widely used and accurate haemodynamic index of myocardial oxygen consumption.
This method requires two cardiovascular parameters to be measured simultaneously, namely the mean aortic systolic blood-pressure and the heart-rate.
The "rate-pressure product" is obtained by multiplying the number of heart beats per minute by the mean aortic systolic blood-pressure. This provides an index of the total amount of oxygen used by the myocardium over a period of one minute. As it thus represents an accurate indication of the oxygen consumption of the myocardium, any lowering of the "rate-pressure product" indicates a corresponding drop in the oxygen consumption of the myocardium.
These tests were carried out on dogs which had been previously anaesthetized with sodium pentobarbital (30 mg/kg by intravenous route).
In both cases, the injection of 10 mg/kg took 2 minutes to administer.

Structure (SMILES): CCCCc1oc2ccccc2c1C(=O)c1cc(I)c(OCCN(CC)CC)c(I)c1 [Amiodarone, reference compound]
- four qualities of an ideal anti-anginal agent (myocardium): possesses the four qualities
- side-effects (patient): microdeposit in the cornea; also recorded: in a few rare cases, the development of a cutaneous sensitivity to light which can lead to a slate-coloured pigmentation of the skin; also recorded: dysfunction of the thyroid gland
- Oxygen Consumption (rate-pressure product) ([1]; 2.5 minutes after): 80.9
- Oxygen Consumption (rate-pressure product) ([1]; 5 minutes after): 79.1
- Oxygen Consumption (rate-pressure product) ([1]; 10 minutes after): 81.7
- Oxygen Consumption (rate-pressure product) ([1]; 15 minutes after): 79.7
- Oxygen Consumption (rate-pressure product) ([1]; 20 minutes after): 79.6
- Oxygen Consumption (rate-pressure product) ([1]; 25 minutes after): 80.4
- Oxygen Consumption (rate-pressure product) ([1]; 30 minutes after): 80.2
- Oxygen Consumption (rate-pressure product) ([1]; 35 minutes after): 79.6
- Oxygen Consumption (rate-pressure product) ([1]; 40 minutes after): 79.6
- Oxygen Consumption (rate-pressure product) ([1]; 45 minutes after): 79.6
- Oxygen Consumption (rate-pressure product) ([1]; 50 minutes after): 80.9
- Oxygen Consumption (rate-pressure product) ([1]; 55 minutes after): 80.0
- Oxygen Consumption (rate-pressure product) ([1]; 60 minutes after): 79.1
